Measurements taken from patent publication US20150018566A1, “TUBULIN BINDING AGENTS” (priority 2011, published 2015).

Key:
tubulin = biological target: T1, tubulin (Sus scrofa, UniProt P02550+P02554); experiment: Tubulin assembly assay (tubulin binding); type: biochemical, porcine; details: under the assay conditions used
T1 construct: The procedure used is modified from Shelanski et al; from tissue
Experimental: The buffer was prepared with deionised water and the pH of the solution was adjusted to 6.6 by the drop-wise addition of 10M aq. NaOH. The buffer was stored at 4° C. prior to use.
Equipment: A Fluostar Optima 96 well plate reader equipped with a thermostat capability.
The tubulin assembly was followed by observing an increase in optical density of a tubulin solution at 350 nm at 37° C. Typically 1 ml of tubulin solution was diluted with EB (5 ml) and GTP solution (25 μl, 5 μl per ml of EB added) to the mixture. The mixture was vortexed for ten seconds in order to ensure the homogeneity of the mixture. 100 μl of the resultant solution was pipetted into a well in the 96 well plate. The increase in optical density of the tubulin solution was measured over a time course of ten minutes at 350 nm and 37° C. […] Accordingly, adjustments were made to the quantity of buffer added in order to obtain a protein concentration within the desired range. […] Tubulin solution (1000 was subsequently pipetted into each of the same three wells. The plate was immediately incubated at 37° C. and was subjected to orbital shaking for five seconds. The UV absorption was measured at 350 nm over a time course of ten minutes. The maximum slope of the resulting curve was measured. The slope of the blank represents the maximum rate of tubulin polymerisation.

rat aortic ring cultures [1] = experiment: Aortic ring assay (anti-angiogenic effect); type: cell-based
rat aortic ring cultures [2] = experiment: Aortic ring assay (anti-vascular model); type: cell-based; details: 1 μM
Experimental: The aortic ring assay is an ideal assay for testing the activity of anti-vascular, anti-angiogenic or pro-angiongenic agents. This method was originally developed and modified by Nicosia. The aorta can be excised from mice or rats, cut into ˜1 mm rings and cultured in either basement membrane matrix (matrigel) or collagen gel. Following incubation for several days the rings start to generate outgrowths of branching microvessels which are lined by endothelial cells and supported by pericytes and fibroblasts. The angiogenic response of the aorta is a self-limited process regulated by endogenous growth factors including bFGF [13], VEGF [14], PDGF [15] and angiopoietins.
The rat aorta model is an ex vivo assay which combines advantages of both in vitro and in vivo models. The process of angiogenesis takes place in a defined culture environment which can be easily adapted to different experimental conditions according to the requirement of the study. The cells of the aortic outgrowth have not been modified by repeated passages in culture and thus newly formed microvessels reproduce the characteristics of the vasculature formed during angiogenesis in vivo [17-18]. There is no influx of leukocytes from circulating blood therefore inflammatory complications which affect the interpretation of in vivo assays are minimised. For the purpose of this study, rat aortic ring cultures were used to investigate firstly the anti-vascular and then the anti-angiogenic activity of test compounds.
The successful growth of the aortic rings into a mircovessel network was dependent on several factors including (i) the amount of periaortic fibroadipose tissue left on the ring, (ii) the orientation of the ring, the way which the ring was embedded into the matrigel and (iii) the volume of the matrigel used.
The aortic ring assay is an ex vivo assay which allows the analyst to examine the inhibition/stimulation of angiogenesis as well as the breakdown of existing vasculature. Basement membrane matrix (matrigel) was stored at −20° C. Prior to use, matrigel vial was placed on ice and kept at 4° C. overnight in order to thaw. The matrigel was kept on ice at all times for the duration of the experiment. Aortic rings were obtained by excising the thoracic aorta of 5-10 weeks old Wistar male rats and removing the fibroadipose tissue from the aortic wall. The rings were obtained by cross-sectioning the aorta at ˜1 mm intervals, removed any blood clots by washing several times with EBM-2. Matrigel (80 μl) was placed uniformly in each well of a 12-well plate and the aortic rings were then placed individually in between the matrigel layer with the lumen perpendicular to the surface of the plate. The matrigel solution was allowed to solidify for 30-40 minutes at 37° C. and 1 ml EBM-2 medium (supplemented with 2% FBS and […] streptomycin/penicillin solution) was added to each culture. The aortic rings were kept in a humidified CO2 incubator at 37° C. and fresh medium was replaced three times a week starting from day 3. Once an established microvessel network was developed (day 7-9), test compounds diluted in EBM-2 medium (1 ml) were added to each well and incubated at 37° C. for 24 h. The cultures were monitored for microvessel breakdown over time and images were taken 1 h, 4 h and 24 h after treatment using an Olympus CKX41 inverted microscope. Images were captured with an E-330 SLR camera system and processed using Cell̂ A software. Each compound concentration was tested in duplicate. Results were presented as images showing the microvessel breakdown at each time point.

T1 sequence (P02550 whole entry): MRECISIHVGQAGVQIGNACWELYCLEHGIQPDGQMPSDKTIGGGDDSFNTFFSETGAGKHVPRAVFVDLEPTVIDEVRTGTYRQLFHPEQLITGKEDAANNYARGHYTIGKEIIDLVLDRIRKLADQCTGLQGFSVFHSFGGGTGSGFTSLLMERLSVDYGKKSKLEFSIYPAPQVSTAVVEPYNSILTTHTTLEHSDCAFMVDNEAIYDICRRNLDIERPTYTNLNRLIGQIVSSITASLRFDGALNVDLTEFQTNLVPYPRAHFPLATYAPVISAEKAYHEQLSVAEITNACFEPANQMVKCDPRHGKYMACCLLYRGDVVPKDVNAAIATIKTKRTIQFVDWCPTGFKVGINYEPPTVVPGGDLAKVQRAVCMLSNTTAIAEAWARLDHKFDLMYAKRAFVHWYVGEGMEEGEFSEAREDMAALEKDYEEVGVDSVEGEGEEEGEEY
T1 sequence (P02554 whole entry): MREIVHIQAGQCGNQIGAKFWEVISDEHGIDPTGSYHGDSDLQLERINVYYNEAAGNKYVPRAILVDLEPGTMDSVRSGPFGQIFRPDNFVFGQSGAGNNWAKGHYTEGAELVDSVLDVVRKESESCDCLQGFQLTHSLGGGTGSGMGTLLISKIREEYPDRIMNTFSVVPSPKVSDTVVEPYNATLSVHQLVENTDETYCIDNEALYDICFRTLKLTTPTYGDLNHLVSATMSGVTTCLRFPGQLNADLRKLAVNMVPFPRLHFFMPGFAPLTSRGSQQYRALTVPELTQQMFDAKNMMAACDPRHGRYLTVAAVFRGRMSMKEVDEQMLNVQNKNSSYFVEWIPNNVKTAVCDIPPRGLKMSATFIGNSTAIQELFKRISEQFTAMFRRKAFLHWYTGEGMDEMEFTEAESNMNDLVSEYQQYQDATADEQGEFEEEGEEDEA

Row | Structure (SMILES) | tubulin binding activity (in words) (tubulin) | anti-angiogenic effect (microvessel area) (rat aortic ring cultures [1]; 0.1 μM) | anti-angiogenic effect (microvessel density) (rat aortic ring cultures [1]; 1 μM) | anti-vascular effect on established microvessel network (rat aortic ring cultures [2]; 4 h of treatment) | anti-vascular effect on established microvessel network (rat aortic ring cultures [2]; 24 h incubation)
1 | COc1ccc(C2=CC(=O)CCc3cc(OC)c(OC)c(OC)c32)cc1O [Compound 12, 9-(3-hydroxy-4-methoxyphenyl)-1,2,3-trimethoxy-6,7-dihydro-5H-benzo[a]cyclohepten-7-one] | inactive | – | – | – | –
2 | COc1ccc(C2=C/C(=N/OCC(=O)NO)CCc3c2cc(OC)c(OC)c3OC)cc1N [Compound 30, 2-[9-(3-Amino-4-methoxy-phenyl)-2,3,4-trimethoxy-5,6-dihydro-benzocyclohepten-7-ylideneaminooxy]-N-hydroxy-acetamide] | – | negligible reduction | significantly (p<0.01) lower microvessel density | satisfactory activity | clear microvessel disruption
